Measurements from PMC7031697, “Mechanism of Activation of AMPK by Cordycepin” (Cell Chemical Biology, 2020).
Like-named read-outs stand apart in the source and are kept apart here. One block for each compound: values may come before it.

What was measured:
[1] = biological target: T1, AMPK complexes containing WT γ2 (Homo sapiens, UniProt Q9UGJ0); assay: AMPK activity in anti-FLAG immunoprecipitates, HepG2 cells with FLAG-tagged WT AMPK-γ2; format: cell-based; settings: 1 h, 300 μM cordycepin, 10 mM phenformin or 300 μM A-769662
T1 construct: expressed in transfected cells; host or cells: HepG2 (transient, Fugene 6)
Experimental: (§1) HepG2 cells ([…]) were cultured in Minimum Essential Medium (MEM) supplemented with 10% (v/v) FBS, 1% (v/v) non-essential amino acids and 1% (v/v) penicillin/streptomycin. Transient transfection of DNAs encoding FLAG-tagged AMPK-γ2 or an R531G mutant of AMPK-γ2 were carried out 36-48 hr prior to experiments using Fugene 6 according to manufacturers’ instructions. U2OS cells ([…]) were cultured in Dulbecco’s Modified Eagle’s Medium (DMEM) supplemented with 10% (v/v) FBS and 1% (v/v) penicillin/streptomycin.
(§2) HepG2 cells were transiently transfected with DNAs encoding FLAG-tagged wild type AMPK-γ2 or the R531G mutant, using Fugene 6 according to the manufacturers’ instructions. After transfection for 48 hr, cells were treated with various agents as described, and cell lysates prepared ([Hawley et al., 2018]). FLAG-tagged AMPK was then immunoprecipitated from 150 μg total protein by incubation at 4°C for 2 hr on a roller mixer with 9 μl of EZview Red anti-FLAG M2 affinity gel. After extensive washing, the immunoprecipitates were assayed for AMPK activity (50 μg per assay in a total volume of 50 μl) using the AMARA peptide (200 μM) as substrate in the presence of 200 μM AMP, 5 mM MgCl2 and 200 μM γ-^32P-ATP as described previously ([Fyffe et al., 2018]).

[2] = biological target: T2, AMPK complexes containing the R531G mutant (Homo sapiens, UniProt Q9UGJ0, R531G); assay: AMPK activity in anti-FLAG immunoprecipitates, HepG2 cells with FLAG-tagged AMPK-γ2 R531G mutant; format: cell-based; settings: 1 h, 300 μM cordycepin, 10 mM phenformin or 300 μM A-769662
T2 construct: expressed in transfected cells; host or cells: HepG2 (transient, Fugene 6)
Experimental: as §1, §2

AMPK = assay: Effect of adenosine kinase and transport inhibitors on AMPK activation in HepG2 cells; format: cell-based, human; settings: 1 μM ABT-702 or 0.5 μM dipyridamole; for effect of cordycepin to activate and phosphorylate AMPK: 300 μM cordycepin 1 h; for effects of AICA riboside on AMPK: 3 mM AICAR 1 h
Experimental: Endogenous AMPK in crude cell lysates was first immunoprecipitated using an equal mixture of anti-α1 and –α2 antibodies (150 μg protein) by incubation at 4°C for 2 hr on a roller mixer. After extensive washing, the immunoprecipitates were assayed for AMPK activity (50 μg per assay, total assay volume 50 μl) using the AMARA peptide (200 μM) as substrate in the presence of 200 μM AMP, 5 mM MgCl2 and 200 μM [γ-^32P]ATP ([Fyffe et al., 2018]).

[3] = tested on: AMPK purified from rat liver; assay: Allosteric activation of purified rat liver AMPK (SAMS peptide, cell-free); format: biochemical
Experimental: AMPK (15 ng) purified from rat liver was assayed in solution using the SAMS peptide as substrate ([Fyffe et al., 2018]) in the presence of AMP or CoMP (concentrations specified in Figure legends), and either 5 mM MgCl2 and 200 μM [γ-^32P]ATP or 9.8 mM MgCl2 and 5 mM [γ-^32P]ATP, thus maintaining a constant excess of [Mg^2+] over [ATP] ([Storer and Cornish-Bowden, 1976]). Total assay volume was 25 μl.

human α2β2γ1 complex [4] = biological target: T3, human α2β2γ1 complex (Homo sapiens, UniProt P54619+P54646); assay: AMPK assay using ATP or CoTP as co-substrate (GST-ACC1 phosphorylation); format: biochemical; settings: for allosteric activation: 30 μM AMP; for Km / estimated Vmax as phosphate donor: GST-ACC1 substrate; for Km: Mg2+ at constant 4.8 mM excess, read-out: Km as phosphate donor; for estimated Vmax as phosphate donor: Michaelis-Menten fit; for effect on allosteric activation by AMP: at high concentrations (5 mM)
T3 construct: made in house
Experimental: As ^32P-labelled CoTP was not available, the experiments in Figures 3C and 3D were performed using non-radioactive CoTP and utilized as co-substrate a construct of glutathione-S-transferase fused at the N-terminus of residues 60-94 of rat ACC1 ([Scott et al., 2002]), which includes the Ser79 phosphorylation site. Bacterially expressed GST-ACC (0.5 μg) was incubated for 10 min in a total volume of 25 μl with bacterially expressed human AMPK (30 ng of α2β2γ1 complex, previously phosphorylated on Thr172 using CaMKK2) with ATP or CoTP as indicated, and sufficient MgCl2 to maintain a constant 4.8 mM excess of [Mg^2+] over [ATP]. Phosphorylation of this substrate was detected using anti-pACC antibody and quantified using a LiCor Odyssey imager.

human α2β2γ1 complex [5] = biological target: T3, human α2β2γ1 complex; assay: Cell-free promotion of Thr172 phosphorylation by LKB1; format: biochemical; settings: varying CoMP, 200 μM ATP
Experimental: These were as described previously ([Fyffe et al., 2018]) with some modifications. Bacterially expressed human AMPK (α2β2γ1 complex, unphosphorylated on Thr172, 500 ng) was incubated for 10 min in a total volume of 25 μl with 200 μM ATP, […] with/without the LKB1:STRAD:MO25 complex (10 ng), in the presence or absence of AMP (200 μM) or cordycepin as indicated. Aliquots were removed for Western blotting and AMPK assays.

rat liver AMPK = assay: Cell-free inhibition of Thr172 dephosphorylation by PP2Cα; format: biochemical; settings: fit of AMPK activity as a function of CoMP concentration; read-out: EC50 of protection against inactivation and Thr172 dephosphorylation by PP2Cα
Experimental: These were as described previously ([Fyffe et al., 2018]) with some modifications. Rat liver AMPK (12.5 μg/ml) was incubated in a shaking incubator at 30°C for 10 min in Hepes buffer (50 mM Na Hepes pH 7.4, 150 mM NaCl, 1 mM dithiothreitol, 0.02% (w/v) Brij-35) with MgCl2 and sufficient PP2Cα to yield about 70% inactivation in the absence of added nucleotide. Aliquots were removed for Western blotting and AMPK assay. Kinase assays were performed immediately after a further 100-fold dilution, which was sufficient to prevent dephosphorylation during the assay.

[6] = 200 μM ATP, for CoMP estimated with maximal activation constrained to 4.4-fold

T3 sequence (P54646 whole entry): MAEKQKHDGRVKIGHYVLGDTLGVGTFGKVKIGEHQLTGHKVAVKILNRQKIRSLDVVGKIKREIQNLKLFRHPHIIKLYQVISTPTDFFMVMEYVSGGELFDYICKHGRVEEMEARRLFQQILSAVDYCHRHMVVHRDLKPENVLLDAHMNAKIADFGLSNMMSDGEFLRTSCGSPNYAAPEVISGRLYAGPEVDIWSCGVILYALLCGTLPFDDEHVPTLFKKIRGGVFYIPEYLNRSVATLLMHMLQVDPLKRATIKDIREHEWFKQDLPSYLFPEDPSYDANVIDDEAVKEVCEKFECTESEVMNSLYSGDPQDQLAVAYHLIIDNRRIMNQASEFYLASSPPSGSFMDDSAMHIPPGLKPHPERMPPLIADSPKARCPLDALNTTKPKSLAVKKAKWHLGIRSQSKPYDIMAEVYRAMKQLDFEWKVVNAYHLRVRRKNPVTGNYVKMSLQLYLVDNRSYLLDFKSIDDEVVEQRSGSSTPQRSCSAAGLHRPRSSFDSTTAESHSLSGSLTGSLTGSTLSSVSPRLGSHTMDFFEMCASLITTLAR
T3 sequence (O43741 whole entry partner): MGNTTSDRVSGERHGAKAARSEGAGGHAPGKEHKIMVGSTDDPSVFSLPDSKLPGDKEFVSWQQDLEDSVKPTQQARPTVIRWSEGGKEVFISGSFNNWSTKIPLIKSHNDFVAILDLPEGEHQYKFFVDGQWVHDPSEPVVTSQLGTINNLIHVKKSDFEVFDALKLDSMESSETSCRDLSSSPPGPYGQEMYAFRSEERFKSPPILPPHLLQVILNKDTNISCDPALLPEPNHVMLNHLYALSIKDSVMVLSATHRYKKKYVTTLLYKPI
T3 sequence (P54619 whole entry): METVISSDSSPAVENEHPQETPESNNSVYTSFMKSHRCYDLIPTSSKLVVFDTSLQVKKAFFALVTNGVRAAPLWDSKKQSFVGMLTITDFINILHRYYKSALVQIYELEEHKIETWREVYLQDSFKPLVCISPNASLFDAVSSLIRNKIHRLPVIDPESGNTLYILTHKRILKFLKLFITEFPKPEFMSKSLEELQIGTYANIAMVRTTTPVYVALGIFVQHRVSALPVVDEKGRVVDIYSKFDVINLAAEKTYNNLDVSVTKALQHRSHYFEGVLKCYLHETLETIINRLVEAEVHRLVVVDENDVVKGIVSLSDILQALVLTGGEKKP
T2 sequence (Q9UGJ0 whole entry R531G, one chain of several): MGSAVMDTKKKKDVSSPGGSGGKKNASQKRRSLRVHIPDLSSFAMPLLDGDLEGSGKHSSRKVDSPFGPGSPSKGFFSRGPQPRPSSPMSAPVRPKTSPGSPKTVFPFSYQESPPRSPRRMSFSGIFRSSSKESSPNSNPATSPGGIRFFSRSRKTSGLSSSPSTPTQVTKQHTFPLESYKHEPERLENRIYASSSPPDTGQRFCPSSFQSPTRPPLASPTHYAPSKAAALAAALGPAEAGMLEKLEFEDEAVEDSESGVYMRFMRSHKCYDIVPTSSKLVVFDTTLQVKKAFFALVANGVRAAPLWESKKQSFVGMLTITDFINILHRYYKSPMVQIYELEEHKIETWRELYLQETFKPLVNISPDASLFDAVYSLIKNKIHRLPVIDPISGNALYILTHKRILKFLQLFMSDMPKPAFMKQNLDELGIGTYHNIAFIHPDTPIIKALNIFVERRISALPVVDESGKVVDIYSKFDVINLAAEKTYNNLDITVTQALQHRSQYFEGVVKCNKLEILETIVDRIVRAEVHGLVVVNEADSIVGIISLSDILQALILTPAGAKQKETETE
T1 sequence (Q9UGJ0 whole entry, one chain of several): as the sequence (Q9UGJ0 whole entry R531G, one chain of several) above, with G531R counted along it

activation of AMPK complexes containing WT γ2 [1]: activated
activation of AMPK complexes containing the R531G mutant [2]: still activated
SMILES: N#Cc1c(O)c2c(-c3ccc(-c4ccccc4O)cc3)csc2[nH]c1=O [A-769662]

SMILES: Nc1ncnc2nc(-c3ccc(N4CCOCC4)nc3)cc(-c3cccc(Br)c3)c12 [ABT-702, 4-amino-5-(3-bromophenyl)-7-(6-morpholinopyridin-3-yl)pyrido[2,3-d]pyrimidine]
effect of cordycepin to activate and phosphorylate AMPK (AMPK): blocked
effects of AICA riboside on AMPK (AMPK): also blocked

SMILES: Nc1ncnc2c1ncn2[C@@H]1O[C@H](COP(=O)(O)O)[C@@H](O)[C@H]1O [AMP, reference compound]
maximal allosteric activation ([3]; 200 μM ATP): 4.4 ± 0.1 fold
EC50 [3, 6]: 3.8 ± 0.2 µM
IC50 ([3]; 200 μM ATP, read-out: IC50 (concentration giving half-maximal inhibition)): 1600 ± 100 µM
allosteric activation (human α2β2γ1 complex [4]; ATP or CoTP concentrations increased to 5 mM): abolished
allosteric activation (human α2β2γ1 complex [4]; kinase assayed using either 200 μM ATP or CoTP as substrate): 4 fold

Km (human α2β2γ1 complex [4]): 36 ± 3 µM
estimated Vmax as phosphate donor (human α2β2γ1 complex [4]): 1.02
effect on allosteric activation by AMP (human α2β2γ1 complex [4]): antagonize
SMILES: Nc1ncnc2c1ncn2[C@@H]1O[C@H](COP(=O)(O)OP(=O)(O)OP(=O)(O)O)[C@@H](O)[C@H]1O [ATP]

IC50 ([3]; 200 μM ATP, estimated, maximal activation constrained to 4.4-fold, read-out: IC50 of inactivation): 500 ± 180 µM
EC50 [3, 6]: 120 ± 50 µM
EC50 ([3]; 5 mM ATP, maximal activation constrained to 4.4-fold): 1400 µM
activation and Thr172 phosphorylation of AMPK by LKB1 (human α2β2γ1 complex [5]): promoted
EC50 (rat liver AMPK): 68 ± 12 µM
SMILES: Nc1ncnc2c1ncn2[C@@H]1O[C@H](COP(=O)(O)O)C[C@H]1O [CoMP, cordycepin 5′-monophosphate]
potency as an allosteric activator, less potent than AMP ([3]; 200 μM ATP): ≈ 30 fold

SMILES: Nc1ncnc2c1ncn2[C@@H]1O[C@H](COP(=O)(O)OP(=O)(O)OP(=O)(O)O)C[C@H]1O [CoTP, cordycepin triphosphate]
Km (human α2β2γ1 complex [4]): 22 ± 3 µM
estimated Vmax as phosphate donor (human α2β2γ1 complex [4]): 0.92
effect on allosteric activation by AMP (human α2β2γ1 complex [4]): antagonize

SMILES: OCCN(CCO)c1nc(N2CCCCC2)c2nc(N(CCO)CCO)nc(N3CCCCC3)c2n1 [dipyridamole]
effect of cordycepin to activate and phosphorylate AMPK (AMPK): blocked
effects of AICA riboside on AMPK (AMPK): also blocked

activation of AMPK complexes containing WT γ2 [1]: activated
activation of AMPK complexes containing the R531G mutant [2]: not activated
SMILES: [H]/N=C(/N)N/C(=N/[H])NCCc1ccccc1 [phenformin]
